Source: patent publication US20240277705A1, “DOSAGE REGIMENS FOR ECUBECTEDIN” (PHARMA MAR S.A., priority 2021, published 2024)

Columns and labels:
MEXF 1341L (melanoma) = assay: Propidium iodide monolayer cell proliferation assay, MEXF 1341L; assay type: cell-based, human; conditions: MEXL 1341L
Method: (§1) Cell proliferation assay: A modified propidium iodide (PI) based monolayer assay was used to assess the anti-cancer activity of the compounds (Dengler WA, Schulte J, Berger DP, Mertelsmann R, Fiebig HH, Anti-Cancer Drugs 1995, 6: 522-532). Briefly, cells were harvested from exponential phase cultures, counted and plated in 96 well flat-bottom microtiter plates at a cell density of 4,000 to 30,000 cells/well dependent on the cell line's growth rate. After a 24 h recovery period, to allow the cells to resume exponential growth, 10 μl of culture medium (4 control wells/cell line/plate) or of culture medium with test compounds were added. PM14 was applied at ten concentrations in half-log increments in duplicates up to 3.16 pM and treatment continued for four days. […] After an incubation period of 1-2 hours at room temperature, fluorescence (FU) was measured using the Enspire Multimode Plate Reader (excitation A=530 nm, emission A=620 nm) to quantify the amount of attached viable cells.
IC50 and IC70 values were calculated by 4 parameter non-linear curve fit using Oncotest Warehouse Software. […]
IC50 values were determined as described in Example 2, but using the following human cancer cell lines: • MEXF 276L (melanoma) • MEXF 462NL (melanoma) • MEXF 1341L (melanoma)

WM-266-4 (Melanoma) = assay: MTT cell viability assay, WM-266-4; assay type: cell-based; conditions: Homo sapiens
Method: Cell viability assay: To assess the antiproliferative activity of the compounds a colorimetric assay based on 3-(4,5-Dimethylthiazol-2-yl)-2,5-diphenyltetrazolium bromide (MTT) reduction was used. […] An appropriate number of cells, to reach a final cell density in the assay ranging from 5,000 to 15,000 cells per well depending on the cell line, were seeded in 96-well plates and allowed to stand in culture medium for 24 h at 37° C. under 5% CO2 and 98% humidity. Then, compounds or DMSO in culture medium were added to reach a final volume of […] and the intended compound concentration in a range covering 10 serial 2/5 dilutions starting from […] (10 μg/mL for doxorubicin) in 1% (v/v) DMSO. At this point a set of “time zero control plates” treated with 1% (v/v) DMSO were processed with MTT as described below. The rest of the plates were incubated during 72 h under the aforementioned environmental conditions. […] Culture medium was then removed and 100 μL of neat DMSO added to each well to dissolve the formazan product into a coloured solution whose absorbance at 540 nm was finally measured in a PolarStar Omega microplate multilabel reader (BMG Labtech, Ortenberg, Germany). […]
GI50 values were determined as described in Example 1, but using the following human cancer cell line: • WM-266-4 (ATCC@ CRL-1676) (Melanoma) […]

[1] = test system: RXF 1781L (hypernephroma, poorly differentiated); assay: Propidium iodide monolayer cell proliferation assay, RXF 1781L; assay type: cell-based, human; conditions: four days of treatment
Method: Working stock solution of PM14 was prepared in DMSO at a concentration of 1.042 mM and small aliquots were stored at −20° C. On each day of an experiment, a frozen aliquot of the working stock solution was thawed and stored at room temperature prior to and during treatment.
Subsequent dilutions were done with complete RPMI 1640 cell culture medium. DMSO stock solutions were first diluted 1:22 (corresponding to 4.5% v/v DMSO). Starting with this solution, serial dilutions in half-log steps with cell culture medium were done using an intermediate dilution plate. Finally, 10 μl taken from the intermediate dilution plate were transferred to 140 μl/well of the cell culture plate. […]
as §1, with “rate.” for “rate. After a 24 h recovery period, to allow the cells to resume exponential growth, 10 μl of culture medium (4 control wells/cell line/plate) or of culture medium with test compounds were added. PM14 was applied at ten concentrations in half-log increments in duplicates up to 3.16 pM and treatment continued for four days.”, “cells. […]” for “cells.”

With `COc1c(C)cc2c(c1O)[C@@H]1[C@@H]3[C@@H]4SC[C@]5(N[C@H](CO)Cc6c5[nH]c5ccccc65)C(=O)OC[C@@H](c5c6c(c(C)c(OC(C)=O)c54)OCO6)N3[C@@H](O)[C@H](C2)N1C` [PM14, ECUBECTEDIN] the IC50 (MEXF 1341L (melanoma); Homo sapiens, MEXF 1341L, read-out: IC50, μM (geometric mean)) was 0.0004 µM, the “IC70, μM (geometric mean)” value (MEXF 1341L (melanoma)) was 0.0006 µM and the GI50 (WM-266-4 (Melanoma)) was 1.94 nM. The IC50 ([1]; Homo sapiens, 96 h, read-out: IC50, μM (geometric mean)) was 0.004 µM and the “IC70, μM (geometric mean)” value [1] was 0.005 µM.
